Test results published in ChEMBL document CHEMBL5729415, “Compounds for treatment of PD-L1 diseases” (2022).

Biological target: Programmed cell death 1 ligand 1 (Homo sapiens, UniProt Q9NZQ7)
Assay: Enzyme-Linked Immunosorbent Assay—ELISA: 96 Well plates were coated with 1 μg/mL of human PD-L1 (obtained from R&D) in PBS overnight at 4′° C. The wells were then blocked with 2% BSA in PBS (W/V) with 0.05% TWEEN-20 for 1 hour at 37′° C. The plates were washed 3 times with PBS/0.05% TWEEN-20 and the compounds were serial diluted (1:5) in dilution medium and added to the ELISA plates. Human PD-1 and biotin 0.3 μg/mL (ACRO Biosystems) were added and incubated for 1 hour at 37° C. then washed 3 times with PBS/0.05% TWEEN-20. A second block was performed with 2% BSA in PBS (WNV)/0.05% TWEEN-20 for 10 min at 37° C. and the plates were washed 3 times with PBS/0.05% TWEEN-20. Streptavidin-HIRP was added for 1 hour at 37° C. then the plates were washed 3 times with PBS/0.05% TWEEN-20. TMB substrate was added and reacted for 20 min at 37° C. A stop solution (2 N aqueous H2SO4) was added.

Chain of Programmed cell death 1 ligand 1 (Q9NZQ7 whole entry): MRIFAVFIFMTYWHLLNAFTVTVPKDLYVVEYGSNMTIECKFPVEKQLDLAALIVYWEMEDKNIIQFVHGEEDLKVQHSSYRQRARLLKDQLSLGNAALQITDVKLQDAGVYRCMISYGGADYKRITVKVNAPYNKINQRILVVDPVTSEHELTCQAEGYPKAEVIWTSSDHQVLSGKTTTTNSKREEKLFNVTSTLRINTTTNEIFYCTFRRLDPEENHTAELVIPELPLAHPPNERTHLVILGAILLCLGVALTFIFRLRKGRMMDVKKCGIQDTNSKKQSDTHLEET

Row | Structure (SMILES) | IC50 [µM]
1 | COc1cc(-c2cccc(-c3cccc(-c4cc(F)c(CN)c(OC)c4)c3C)c2C)cc(F)c1CN | < 1
2 | COc1cccc(-c2cccc(-c3cc(F)c(CN)c(OC)c3)c2C)c1F | < 1
3 | COc1cc(-c2cccc(-c3ccc4c(c3F)OCCO4)c2C)cc(F)c1CN | < 1
4 | COc1cc(-c2cccc(-c3ccc4c(c3)NC(=O)CO4)c2C)cc(F)c1CN | < 1
5 | COc1cc(-c2cccc(-c3cccc(C)c3)c2C)cc(F)c1CN | < 1
6 | COc1cccc(-c2cccc(-c3cc(F)c(CN)c(OC)c3)c2C)c1C | < 1
7 | COc1cc(-c2cccc(-c3ccc4c(c3)OCCO4)c2C)cc(F)c1CN | < 1
8 | COc1cc(-c2cccc(-c3ccc4nc[nH]c(=O)c4c3)c2C)cc(F)c1CN | < 1
9 | COc1cccc(-c2cccc(-c3cc(F)c(CN)c(OC)c3)c2C)c1 | < 1
10 | COc1cc(F)cc(-c2cccc(-c3cc(F)c(CN)c(OC)c3)c2C)c1 | < 1
11 | COC(=O)c1ccc(-c2cccc(-c3cccc(-c4cc(F)c(CN)c(OC)c4)c3C)c2C)cc1OC | < 1
12 | Cc1c(-c2ccc(CN)cc2)cccc1-c1cccc(-c2ccc(CN)cc2)c1C | < 1
13 | COc1cc(-c2cccc(-c3ccc4c(c3C)OCCO4)c2C)cc(F)c1CN | < 1
14 | COc1ccc(F)c(-c2cccc(-c3cc(F)c(CN)c(OC)c3)c2C)c1F | < 1
15 | COc1cc(-c2cccc(-c3cccc(-c4cc(F)c(CN)c(OC)c4)c3C)c2C)ccc1CC(N)=O | < 1
16 | COc1cc(OC)c(F)c(-c2cccc(-c3cc(F)c(CN)c(OC)c3)c2C)c1F | < 1
17 | COc1cc(-c2cccc(-c3cccc(C)c3F)c2C)cc(F)c1CN | < 1
18 | COc1cc(-c2cccc(-c3ccc4c(c3)OC(CN)CO4)c2C)cc(F)c1CN (centres undefined) | < 1
19 | COc1cc(-c2cccc(-c3cccc(-c4ccc(CN)cc4)c3C)c2C)cc(F)c1CN | < 1
